Experimental data: publication PMC10620989, “Going beyond Binary: Rapid Identification of Protein–Protein Interaction Modulators Using a Multifragment Kinetic Target-Guided Synthesis Approach” (Journal of Medicinal Chemistry, 2023)
pIC50: −log10 of the molar value. Where two headings read alike, the source gives them in different places.

Legend:
Bcl-XL = Bcl-XL (Homo sapiens, UniProt Q07817); assay: Multifragment KTGS incubation with Bcl-XL (9 TA x 9 SZ in one well), LC-MS/MS; conditions: 81 combinations in one well, 5 μM Bcl-XL, phosphate buffer pH 7.4, 8 h
[1] = biological target: GST-tagged mouse Mcl-1-(152–309) (Mus musculus, UniProt P97287); assay: Fluorescence polarization competitive binding assay, GST-Mcl-1 / FITC-Bim-BH3; parameters: selectivity index: reference not given here; conditions: for inhibition at 50 µM: compound at 50 µM
GST-Bcl-XL [2] = biological target: T1, GST-Bcl-XL (Homo sapiens, UniProt Q07817); assay: Fluorescence polarization assay, GST-Bcl-XL / fluorescein-labeled Bak BH3 peptide; assay type: binding; conditions: FP, GST-Bcl-XL and fluorescein-labeled Bak BH3 peptide; ND = not detected
Mcl-1 [3] = biological target: T2, Mcl-1 (Mus musculus, UniProt P97287); assay: Multifragment KTGS screen against Mcl-1 (5 TA x 38 SZ per well), LC-MS/MS; conditions: multifragment KTGS, 190 combinations per well, 10 μM Mcl-1, 20 μM each fragment, pH 7.4, 37 °C, 10 h; peak area with protein / without protein
Mcl-1 [4] = biological target: T2, Mcl-1; assay: Binary KTGS incubation (1 TA x 1 SZ) with Mcl-1, LC-MS/MS; conditions: binary incubation mixtures with and without Mcl-1
GST-Bcl-XL [5] = biological target: T1, GST-Bcl-XL; parameters: method as in PMID 21892513; conditions: 50 μM; ref 15b; cited from earlier work
[6] = FP, GST-Mcl-1 and fluorescein-labeled Bim BH3 peptide, read-out: IC50 on Mcl-1

T2 sequence (P97287 whole entry, the tested form may be a part): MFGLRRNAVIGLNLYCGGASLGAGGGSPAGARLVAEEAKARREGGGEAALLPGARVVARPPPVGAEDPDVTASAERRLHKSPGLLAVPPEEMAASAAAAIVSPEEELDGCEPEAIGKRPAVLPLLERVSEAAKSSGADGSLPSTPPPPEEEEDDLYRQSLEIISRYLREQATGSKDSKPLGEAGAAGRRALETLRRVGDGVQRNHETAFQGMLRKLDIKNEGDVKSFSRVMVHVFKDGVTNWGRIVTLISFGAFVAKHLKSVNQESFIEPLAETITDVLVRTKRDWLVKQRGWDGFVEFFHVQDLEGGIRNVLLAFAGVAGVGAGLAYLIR
Sequence of GST-tagged mouse Mcl-1-(152–309) (P97287 152-309): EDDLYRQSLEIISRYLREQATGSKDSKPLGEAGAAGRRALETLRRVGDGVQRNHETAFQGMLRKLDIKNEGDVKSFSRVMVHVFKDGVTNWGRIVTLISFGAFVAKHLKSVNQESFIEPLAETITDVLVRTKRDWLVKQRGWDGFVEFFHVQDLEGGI
Sequence of Bcl-XL (Q07817 whole entry, species assumed, the tested form may be a part): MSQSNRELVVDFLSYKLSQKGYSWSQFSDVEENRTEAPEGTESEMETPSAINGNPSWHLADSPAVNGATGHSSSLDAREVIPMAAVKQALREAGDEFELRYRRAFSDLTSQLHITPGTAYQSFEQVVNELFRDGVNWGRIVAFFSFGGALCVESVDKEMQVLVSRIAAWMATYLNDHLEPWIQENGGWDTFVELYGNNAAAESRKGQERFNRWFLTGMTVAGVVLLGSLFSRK
T1 sequence (Q07817 whole entry, the tested form may be a part): as the sequence (Q07817 whole entry, species assumed, the tested form may be a part) above

Row | SMILES | Amplification coefficient (Bcl-XL) | pIC50 [1, 6] | IC50 on Bcl-XL (GST-Bcl-XL [2]) | inhibition at 50 µM ([1]; FP) | pIC50 (GST-Bcl-XL [2]) | Amplification coefficient 5TA x 38SZ (Mcl-1 [3]) | Amplification coefficient 1TA x 1SZ (Mcl-1 [4]) | inhibition of the Bcl-XL/Bak BH3 interaction (GST-Bcl-XL [5]) | selectivity index [1] | pIC50 ([1]; IC50 on Mcl-1)
1 | CC1(C)CCN(c2ccc(C(=O)NS(=O)(=O)c3ccc(NCCSc4ccccc4)c([N+](=O)[O-])c3)cc2)CC1 [SZ4TA2, reference compound] | 15.0 | – | – | – | – | – | – | – | – | –
2 | [N-]=[N+]=NS(=O)(=O)c1ccc(CN(CCSc2ccccc2)Cc2ccc(S(=O)(=O)NC(=O)c3cccc4ccccc34)cc2)cc1 [SZ9TA7, O=C(NS(C1=CC=C(CN(CC2=CC=C(S(=O)(N=[N+]=[N-])=O)C=C2)CCSC3=CC=CC=C3)C=C1)(=O)=O)C4=C(C=CC=C5)C5=CC=C4] | 7.1 | 5.09 | – | 94.1% | 4.18 | 23 | 6 | 45% | – | –
3 | COc1cc(OC)cc(C(=O)NS(=O)(=O)c2ccc(CN(CCSc3ccccc3)Cc3c(F)cccc3Cl)cc2)c1 [SZ15TA5, O=C(NS(C1=CC=C(CN(CCSC2=CC=CC=C2)CC3=C(F)C=CC=C3Cl)C=C1)(=O)=O)C4=CC(OC)=CC(OC)=C4] | – | – | – | > 99% | 4.28 | 9 | 4 | – | 4.0 | 4.87
4 | COc1cccc(CN(CCSc2ccccc2)Cc2ccc(S(=O)(=O)NC(=O)c3sc(-c4ccccc4)nc3C)cc2)c1 [SZ17TA3, O=C(NS(C1=CC=C(CN(CC2=CC(OC)=CC=C2)CCSC3=CC=CC=C3)C=C1)(=O)=O)C4=C(C)N=C(C5=CC=CC=C5)S4] | – | 5.07 | – | > 99% | 4.30 | 25 | 12 | – | – | –
5 | O=C(NS(=O)(=O)c1ccc(CN(CCSc2ccccc2)Cc2c(F)cccc2Cl)cc1)c1ccccc1 [SZ15TA1, O=C(NS(C1=CC=C(CN(CCSC2=CC=CC=C2)CC3=C(F)C=CC=C3Cl)C=C1)(=O)=O)C4=CC=CC=C4] | – | – | – | 92.5% | 4.54 | 13 | 5 | – | – | 5.01
6 | [N-]=[N+]=NS(=O)(=O)c1ccc(CN(CCSc2ccccc2)Cc2ccc(S(=O)(=O)NC(=O)c3ccccc3)cc2)cc1 [SZ9TA1, O=C(NS(C1=CC=C(CN(CC2=CC=C(S(=O)(N=[N+]=[N-])=O)C=C2)CCSC3=CC=CC=C3)C=C1)(=O)=O)C4=CC=CC=C4] | 7.3 | 4.70 | – | 97.3% | 4.54 | 14 | 4 | – | – | –
7 | O=C(NS(=O)(=O)c1ccc(CN(CCSc2ccccc2)Cc2c(F)cccc2Cl)cc1)c1ccc(CCc2ccccn2)cc1 [SZ15TA17, O=C(NS(C1=CC=C(CN(CCSC2=CC=CC=C2)CC3=C(F)C=CC=C3Cl)C=C1)(=O)=O)C4=CC=C(CCC5=NC=CC=C5)C=C4] | – | – | – | 89.5% | 4.25 | 7 | 7 | – | – | 4.69
8 | O=C(NS(=O)(=O)c1ccc(CN(CCSc2ccccc2)Cc2c(F)cccc2Cl)cc1)c1ccc(-c2ccccn2)cc1 [SZ15TA25, O=C(NS(C1=CC=C(CN(CCSC2=CC=CC=C2)CC3=C(F)C=CC=C3Cl)C=C1)(=O)=O)C4=CC=C(C5=NC=CC=C5)C=C4] | – | – | – | 89% | 4.26 | 15 | 4.5 | – | – | 4.82

Continued, in another order:

Row | Amplification coefficient (Bcl-XL) | pIC50 [1, 6] | IC50 on Bcl-XL (GST-Bcl-XL [2]) | SMILES | inhibition at 50 µM ([1]; FP) | pIC50 (GST-Bcl-XL [2]) | Amplification coefficient 5TA x 38SZ (Mcl-1 [3]) | Amplification coefficient 1TA x 1SZ (Mcl-1 [4]) | inhibition of the Bcl-XL/Bak BH3 interaction (GST-Bcl-XL [5]) | selectivity index [1] | pIC50 ([1]; IC50 on Mcl-1)
9 | 7.6 | 5.09 | – | COc1cc(OC)cc(C(=O)NS(=O)(=O)c2ccc(CN(CCSc3ccccc3)Cc3ccc(S(=O)(=O)N=[N+]=[N-])cc3)cc2)c1 [SZ9TA5, O=C(NS(C1=CC=C(CN(CC2=CC=C(S(=O)(N=[N+]=[N-])=O)C=C2)CCSC3=CC=CC=C3)C=C1)(=O)=O)C4=CC(OC)=CC(OC)=C4] | 99% | – | 8 | 4.5 | – | – | –
10 | – | 4.87 | below the detectable threshold | O=C(NS(=O)(=O)c1ccc(CNc2cccc([N+](=O)[O-])c2)cc1)c1ccc(CN2C(=O)C(c3ccc(F)cc3F)=C(c3ccc(F)cc3F)C2=O)cc1 [SZ12TA42, O=C(NS(C1=CC=C(CNC2=CC=CC([N+]([O-])=O)=C2)C=C1)(=O)=O)C3=CC=C(CN4C(C(C5=C(F)C=C(F)C=C5)=C(C6=CC=C(F)C=C6F)C4=O)=O)C=C3] | 89.4% | – | 9 | 6 | – | – | –
11 | 15.2 | – | – | CC1(C)CCN(c2ccc(C(=O)NS(=O)(=O)c3ccc4ccc(S(=O)(=O)NCCSc5ccccc5)cc4c3)cc2)CC1 [SZ7TA2] | – | – | – | – | – | – | –
12 | – | 4.58 | – | O=C(NS(=O)(=O)c1ccc(NCCSc2ccccc2)c([N+](=O)[O-])c1)c1ccc2c(ccn2Cc2ccc(C(F)(F)F)cc2C(F)(F)F)c1 [SZ4TA30, O=C(NS(C1=CC=C(NCCSC2=CC=CC=C2)C([N+]([O-])=O)=C1)(=O)=O)C3=CC(C=CN4CC5=CC=C(C(F)(F)F)C=C5C(F)(F)F)=C4C=C3] | 80.7% | < 4.30 | 20 | 4 | – | – | –
13 | – | 4.70 | below the detectable threshold | COc1ccc(Cc2ccc(C(=O)NS(=O)(=O)c3ccc(CN(CCSc4ccccc4)Cc4ccc5c(c4)OCO5)cc3)cc2)c(OC)c1OC [SZ31TA24, O=C(NS(C1=CC=C(CN(CC2=CC(OCO3)=C3C=C2)CCSC4=CC=CC=C4)C=C1)(=O)=O)C5=CC=C(CC6=C(OC)C(OC)=C(OC)C=C6)C=C5] | 82.4% | – | 7 | 15 | – | – | –
14 | – | 4.85 | below the detectable threshold | O=C(Cn1c2ccccc2c2ccccc21)NS(=O)(=O)c1ccc(CN(CCSc2ccccc2)Cc2ccc3c(c2)OCO3)cc1 [SZ31TA15, O=C(NS(C1=CC=C(CN(CC2=CC(OCO3)=C3C=C2)CCSC4=CC=CC=C4)C=C1)(=O)=O)CN5C(C=CC=C6)=C6C7=C5C=CC=C7] | 80.7% | – | 72 | 6 | – | – | –
